Test [1] deals with P-selectin binding to HL60 cells (PSGL-1) (Homo sapiens, UniProt P16109). As to conditions: displacement of P-selectin binding to HL60 cells; ref Molenaar et al. [28]; cited from earlier work.
The next test deals with T1, P-selectin (Homo sapiens, UniProt P16109).
T1 construct: purchased R&D systems (Minneapolis, MN, USA)
Briefly: Competition of [3H]-CE-labeled sulfatide liposome binding to P-selectin-coated wells. As to conditions: for Change in Sf42 liposome binding to P-selectin: Sf42 liposomes 100 μg/mL; for Change in Sf57 liposome binding to P-selectin: Sf57 liposomes 100 μg/mL; for EC50: Sf28 liposomes (28% sulfatide); for Change in Sf28 liposome binding to P-selectin: Sf28 liposomes 100 μg/mL. The protocol: Liposomes were prepared by sonication as follows. Egg yolk phosphatidylcholine, cholesterol, and sulfatides, all dissolved in chloroform/methanol (1:1, v/v), were mixed at weight ratios of 4:0.8:0 (named Sf0), 4:0.8:1.3 (Sf21), 2.5:0.8:1.3 (Sf28), 1:0.8:1.3 (Sf42), and 0.2:0.8:1.3 mg/mL (Sf57). The Sf numbers indicate the number of sulfatides as a percentage of total lipid weight. A tracer amount of [^3H]-cholesteryl oleate ([^3H]-CE; 1.3 × 10^8 dpm (disintegrations per minute)) was added, and the organic solvent was evaporated by a stream of nitrogen. The resulting lipid layer was vortexed in 1 mL phosphate buffered saline (PBS) and subsequently sonicated for 40 min at 54 °C using a Soniprep 150 (MSE Scientific Instruments, Crawley, UK) at 18 µm amplitude. Particle sizes were determined by photon correlation spectroscopy (Malvern 4700 C System, Malvern Instruments, Malvern, UK) at 25 °C and a 90° angle between laser and detector. […] Liposomes were stored at 4 °C under argon and used for characterization and metabolic studies within 7 days following preparation, during which no physicochemical changes occurred. As the liposomes were equal in size and incorporation of the radioactive label was quantitative, the specific activity of each sulfatide-bearing liposome was calculated as the amount of [^3H]-cholesteryloleate (dpm) divided by the total lipid content (ng).
Fc-specific goat anti-human IgG (10 μg/mL) was coated overnight at 4 °C in a high binding 96-well plate (Costar, Corning, UK) in coating buffer (50 mM NaHCO3, pH 9.6). Then, wells were washed with assay buffer (20 mmol/L HEPES, 150 mmol/L NaCl, 1 mmol/L CaCl2, pH 7.4) and incubated for 1 h at 37 °C with blocking buffer (3% bovine serum albumin (BSA) in assay buffer). After washing, wells were incubated with fusion proteins of IgG and P-, E-, or L-selectin (0.3 μg/mL, 2 h, 37 °C), washed with assay buffer, and subsequently incubated for 2 h at 4 °C with a concentration range of [^3H]-CE-labeled liposomes (0–800 µg lipid per mL assay buffer containing 0.2% BSA). For competition studies, labeled liposomes (1 × 10^5 dpm/well) were incubated in the presence of peptides or antibodies at the indicated concentrations. After removal of unbound liposomes by washing four times with assay buffer, bound liposomes were collected in 2-propanol/butanol/water (50:25:20, by vol.) and counted for radioactivity using a scintillation counter. Since the sulfatide liposomes were equal in size, the recovered amount of [^3H]-CE could be used to calculate the binding capacity of P-selectin for the sulfatide liposomes, as well as the recovered amount of lipid (ng/well) based on the specific activity.

Test [2] has as its system human platelets. Briefly: ADP-induced platelet aggregation in human platelet-rich plasma (optical aggregometry). It counts as cell-based. As to conditions: 10 μM ADP. From the text:
Freshly drawn venous blood from healthy volunteers was obtained through the Mini Donor Service, a blood donation facility for research purposes, that is approved by the Medical Ethics Committee of the University Medical Center Utrecht (protocol number 07-125). All donors provided written informed consent, in accordance with the Declaration of Helsinki for blood collection through this service. All participant information is kept confidential, and only Mini Donor Service personnel have access to the information provided. The donors were free of medication for at least two weeks before blood collection. Overnight fasting before blood collection was not necessary. Blood was collected into 0.1 volume 130 mmol/L trisodium citrate and was processed the same day and within 6 h. For aggregation studies, platelet-rich plasma (PRP) was prepared by centrifugation (150 g, 15 min, 20 °C) and adjusted to a final concentration of 2×10^11 platelets/L with platelet-poor plasma prepared from the remaining blood (1100 g, 10 min, 20 °C). […]
(§1) Human PRP was incubated with peptide antagonists (100 μmol/L, 5 min, 37 °C) or vehicle and stimulated with 10 μmol/L ADP under constant stirring at 1000 rpm (37 °C). Optical aggregation was monitored in a Chrono-Log Lumi-aggregometer (Chrono-Log Corporation, Havertown, PA, USA).

Test [3] deals with human platelets. Briefly: Aggregate size after ADP-induced aggregation of human PRP (light microscopy). It counts as cell-based. Particulars: 100 μM. The procedure:
as §1
After 15 min, aggregates were fixed in 1 volume 0.5% glutaraldehyde in PBS and applied to microscope slides. Aggregates were dehydrated with methanol and stained with May-Grünwald/Giemsa. The aggregate size was measured by light microscopy equipped with a JAI-CCD camera (Copenhagen, Denmark) coupled to a Matrox frame grabber (Matrox Electronic Systems Ltd., Dorval, Quebec, Canada) using the ‘watershed’ function of the Optimas 6.2 software (Optimas Inc., Seattle, WA, USA). Results were expressed as mean aggregate size (μm^2).

For the next test, the target named is T2, human P-selectin-IgG (human, UniProt P16109 42-771).
T2 construct: P-selectin, human, fused to IgG (Fc); Captured in the wells through Fc-specific goat anti-human IgG; also called human Fc fusion protein of P-selectin; fusion protein of IgG and P-selectin; source: bought: R&D systems
T2 sequence (looked up): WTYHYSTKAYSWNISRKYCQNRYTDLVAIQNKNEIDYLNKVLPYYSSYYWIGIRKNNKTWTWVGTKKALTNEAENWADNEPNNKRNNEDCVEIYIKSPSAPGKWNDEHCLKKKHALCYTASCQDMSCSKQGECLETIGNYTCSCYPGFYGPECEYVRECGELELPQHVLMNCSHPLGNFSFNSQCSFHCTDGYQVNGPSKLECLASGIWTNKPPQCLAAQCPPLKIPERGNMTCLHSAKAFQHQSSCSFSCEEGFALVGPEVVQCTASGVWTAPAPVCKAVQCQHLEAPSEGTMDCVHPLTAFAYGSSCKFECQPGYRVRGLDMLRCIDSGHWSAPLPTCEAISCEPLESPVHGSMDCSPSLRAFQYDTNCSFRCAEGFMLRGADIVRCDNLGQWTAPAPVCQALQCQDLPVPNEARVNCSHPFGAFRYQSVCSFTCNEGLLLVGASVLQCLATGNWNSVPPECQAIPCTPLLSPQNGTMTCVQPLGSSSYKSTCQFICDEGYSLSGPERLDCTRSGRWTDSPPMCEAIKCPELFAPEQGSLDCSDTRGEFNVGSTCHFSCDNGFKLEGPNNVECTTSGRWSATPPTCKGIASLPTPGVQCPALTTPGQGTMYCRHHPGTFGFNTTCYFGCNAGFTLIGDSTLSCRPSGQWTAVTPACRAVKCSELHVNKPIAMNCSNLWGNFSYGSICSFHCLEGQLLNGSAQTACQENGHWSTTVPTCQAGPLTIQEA
Briefly: radioligand binding; displacement: P-selectin-IgG (0.3 ug/mL) captured on Fc-specific goat anti-human IgG in 96-well plates; [3H]-cholesteryl oleate-labelled Sf28 sulfatide liposomes (1 x 10^5 dpm/well) with increasing amounts of peptide; 2 h, 4 C; 20 mmol/L HEPES, 150 mmol/L NaCl, 1 mmol/L CaCl2, pH 7.4, 0.2% BSA. As to conditions: both partners purified.

Test [4] concerns the target human P-selectin-IgG (human) (UniProt P16109).

Positions of bridges follow the written chain, without caps; N, C: chain ends. Residues, ends and D or L forms follow the SMILES beside them. No end group written: not given here.

Chain of P-selectin binding to HL60 cells (PSGL-1) (P16109 42-830 limits assumed): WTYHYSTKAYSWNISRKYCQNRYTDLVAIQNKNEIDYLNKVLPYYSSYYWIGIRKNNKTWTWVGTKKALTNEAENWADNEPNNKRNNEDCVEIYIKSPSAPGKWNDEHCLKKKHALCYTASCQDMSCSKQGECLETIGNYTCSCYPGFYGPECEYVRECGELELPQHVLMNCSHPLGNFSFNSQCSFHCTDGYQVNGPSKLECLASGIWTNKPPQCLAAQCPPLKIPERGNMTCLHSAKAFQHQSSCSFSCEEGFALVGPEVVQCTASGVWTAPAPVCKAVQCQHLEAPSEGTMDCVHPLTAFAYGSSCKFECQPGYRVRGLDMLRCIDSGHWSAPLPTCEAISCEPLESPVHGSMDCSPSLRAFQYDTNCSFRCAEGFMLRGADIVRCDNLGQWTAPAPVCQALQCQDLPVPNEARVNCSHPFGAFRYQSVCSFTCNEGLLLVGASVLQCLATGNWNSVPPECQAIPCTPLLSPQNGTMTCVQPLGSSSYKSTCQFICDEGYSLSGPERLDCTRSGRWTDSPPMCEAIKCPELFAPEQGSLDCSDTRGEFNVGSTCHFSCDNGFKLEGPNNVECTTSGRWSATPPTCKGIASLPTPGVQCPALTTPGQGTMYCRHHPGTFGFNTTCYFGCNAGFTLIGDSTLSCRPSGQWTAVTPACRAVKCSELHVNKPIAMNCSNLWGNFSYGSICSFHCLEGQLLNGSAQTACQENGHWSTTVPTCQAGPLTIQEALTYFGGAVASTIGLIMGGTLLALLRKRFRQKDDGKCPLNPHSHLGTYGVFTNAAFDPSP

As for DVEWVDVA [DVEWVDVA], the EC50 in test [1] is 7 µM.
Take `CC(C)[C@@H]1NC(=O)[C@H](CC(=O)O)NC(=O)[C@H](C(C)C)NC(=O)[C@H](Cc2c[nH]c3ccccc23)NC(=O)[C@H](CCC(=O)O)NC(=O)[C@H](C(C)C)NC(=O)[C@H](CC(=O)O)NC(=O)[C@@H](N)CSSC[C@@H](C(=O)O)NC(=O)[C@H](CO)NC1=O` [CDVEWVDVSC] (H-CDVEWVDVSC-OH; disulfide 1-10 (inferred); N-terminus and C-terminus assumed): at P-selectin (0.5 µM), the “Change in Sf42 liposome binding to P-selectin” value was “did not affect” and the “Change in Sf57 liposome binding to P-selectin” value was “did not affect”. Further, the “Initial slope of platelet aggregation” value with human platelets [2] (100 μM peptide) is on record as “remained unaltered”. Further, in the test on human platelets [2] (100 µM peptide, human PRP, maximum aggregation), the “Aggregation: percentage inhibition of platelet aggregation” value is given as 43% (p<0.001). Moreover, in the test on human platelets [3] (ADP-induced aggregation of human PRP), the “Reduction of mean aggregate size” value is given as “about 90%”. In the test on human platelets [3] (15% in the absence of inhibitors), the “Aggregates smaller than 1000 μm^2” value came out at 76%.
In the case of DVEWVDVS [DVEWVDVS], the EC50 at P-selectin was 0.012 mM; in test [1], 11 µM.
Consider AVEWVDVS [AVEWVDVS], for which the figures for the EC50 (at P-selectin; in test [1]) were above 1 mM and 12 µM, respectively.
On to VEWVDV [VEWVDV], for which the results for the EC50 (at P-selectin; in test [1]) were above 1 mM and 13 µM, respectively.
DVEAVDVS [DVEAVDVS]: the results for the concentration giving a half-maximal response (EC50) (at P-selectin; in test [1]) were above 1 mM and above 1000 µM, respectively.
EWVDV [EWVDV]: the results for the EC50 (on P-selectin; in test [1]) were above 1 mM and 12 µM, respectively. The molecule also had an IC50 on P-selectin (abstract) above 1 mM.
Take DVAWVDVS [DVAWVDVS]: the EC50 on P-selectin was above 1 mM; in test [1], 41 µM.
For the molecule “rPSGL-1-Ig: recombinant PSGL-1 immunoglobulin fusion, P-selectin inhibitor”, in the test with P-selectin (15 µg/mL), the “Change in Sf28 liposome binding to P-selectin” value is listed as −88%, the “Change in Sf42 liposome binding to P-selectin” value is −97% and the “Change in Sf57 liposome binding to P-selectin” value is recorded as −68%.
For the molecule DVEWVDAS [DVEWVDAS], the EC50 on P-selectin was above 1 mM; in test [1], above 1000 µM.
As for DAEWVDVS [DAEWVDVS], the 50% effective concentration (EC50) at P-selectin was above 1 mM; in test [1], 19 µM.
As for `O=C(O)CN(CCN(CC(=O)O)CC(=O)O)CC(=O)O` [EDTA, reference compound], at P-selectin (10 mM), the “Change in Sf28 liposome binding to P-selectin” value is −79%, the “Change in Sf42 liposome binding to P-selectin” value is “did not affect” and the “Change in Sf57 liposome binding to P-selectin” value is given as “did not affect”.
As to DVEWVAVS [DVEWVAVS], the half-maximal effective concentration (EC50) was above 1 mM at P-selectin and above 1000 µM in test [1].
On to EWVKV [EWVKV], for which the EC50 on P-selectin was above 1 mM; in test [1], above 1000 µM.
For the molecule DVEWADVS [DVEWADVS], the EC50 on P-selectin was above 1 mM; in test [1], above 1000 µM.

B1: CDVEWVDVSC (peptide)
peptide: CDVEWVDVSC
notes: also called peptide antagonist; elongated EWVDV peptide
As to B1, the midpoint of the response in the test with human P-selectin-IgG, the EC50, lay at 0.2 µM.

B2: EWVKV (peptide)
peptide: EWVKV
With B2, the Percentage inhibition of ADP-induced aggregation of human platelet-rich plasma at 100 uM peptide (sulfatide/P-selectin-dependent aggregation) in test [4] is 0%.

B3: DVEWVDVA (peptide)
peptide: DVEWVDVA
notes: also called elongated EWVDV peptide
As to B3, the EC50 with human P-selectin-IgG was 8 µM.

B4: EWVDV (peptide)
peptide: EWVDV
The molecule B4 had a Percentage inhibition of ADP-induced aggregation of human platelet-rich plasma at 100 uM peptide (sulfatide/P-selectin-dependent aggregation) in test [4] of 12%.

(Values after publication PMC6722823, “Peptide Antagonists for P-selectin Discriminate between Sulfatide-Dependent Platelet Aggregation and PSGL-1-Mediated Cell Adhesion” (Journal of Clinical Medicine, 2019).)
